Results taken from US5631261A, “Triazoloquinazolines, their preparation and use” (BASF Aktiengesellschaft, priority 1992, dated 1997).
pKi: −log10 of the molar value.

Experiments:
[1] = molecular target: T1, NMDA receptor (N-methyl-D-aspartate) (Rattus norvegicus, UniProt P35439); test: Binding of 3H-5,7-dichlorokynurenic acid (displacement from rat cerebral membranes); settings: buffer pH 7.4, on ice 30 minutes
T1 construct: isolated membrane material from rat cerebra; from tissue; host or cells: rat cerebrum, washed membranes
Experimental: (§1) The pharmacological activity of the compounds I according to the invention was investigated on isolated membrane material from rat cerebra. To do this, the membrane material was treated in the presence of the compounds according to the invention with the radiolabeled substances ^3 H-2-amino-3-hydroxy-5-methyl-4-isoxazolepropionic acid (^3 H-AMPA) and ^3 H-5,7-dichlorokynurenic acid, the latter binding to specific receptors (AMPA receptor and NMDA receptor (N-methyl-D-aspartate)respectively). The radioactivity of the treated membranes was subsequently measured by scintillation counting. The amounts of bound ^3 H-AMPA and ^3 H-5,7-dichlorokynurenic acid, or in each case the amounts of these radiolabeled substances displaced, were determined from the bound radioactivity. The dissociation constant KI (I=inhibitor) resulting from this, which is a measure of the displacing effect of the agent according to the invention, was found by iterative nonlinear regression analysis using the Statistical Analysis System (SAS) on an IBM computer, similar to the Ligand program of P. J. Munson or D. Rodbard (Analytical Biochem. 107, 220 (1980), Ligand: Versatile Computerized Approach for Characterization of Ligand Binding Systems).
2. Binding of ^3 H-5,7-dichlorokynurenic acid
To prepare the membrane material, freshly removed rat cerebra were homogenized together with about 10 times the volume of a buffer solution A' composed of 50 mM TRIS-HCl and 10 mM EDTA, pH 7.4. The suspension was centrifuged at 48,000 g for 20 minutes. After removal of the supernatant liquid, the membrane material present in the sediment was washed twice by suspension in buffer solution A' and subsequent centrifugation for 20 minutes each time and suspension. After resuspension of the membranes in buffer solution A' and freezing in liquid nitrogen, the suspension was thawed again at 37° C. and, after another wash step, incubated at 37° C. for 15 minutes. The protein material was subsequently washed by centrifugation and suspension four times and was stored at -70° C. until used.
For the binding assay, the protein material was thawed at 37° C. and washed twice by centrifugation at 48,000 g (20 minutes) followed by suspension in a buffer solution B' composed of 50 mM TRIS-HCl, pH 7.4. Subsequently 0.15 mg of membrane material, 0.3 μCi of ^3 H-5,7-dichlorokynurenic acid (16 Ci/mmol) and compound I were dissolved in 1 ml of buffer solution B' and incubated on ice for 30 minutes. The incubated solution was centrifuged at 150,000 g for 2 minutes. After removal of the supernatant liquid, the sediments were suspended twice in 1.5 ml of cold buffer solution B' each time. After the radioactivity of the ^3 H-5,7-dichlorokynurenic acid bound to the membranes in the sediment had been measured, the KI was found by subjecting the displacement plots to regression analysis.

AMPA receptor = test: Binding of 3H-AMPA (displacement from rat cerebral membranes); settings: buffer pH 7.1, on ice 60 minutes
Experimental: as §1
1. Binding of ^3 H-2-amino-3-hydroxy-5-methyl-4-isoxanolpropionic acid (^3 H-AMPA)
To prepare the membranes, freshly removed rat cerebra were homogenized together with about 15 times the volume of a buffer solution A composed of 30 mM α,α,α-tris(hydroxymethyl)methylamine hydrochloride (TRIS-HCl) and 0.5 mM ethylenediaminetetraacetic acid (EDTA), pH 7.4, using an Ultra-TURRAX. The suspension was centrifuged at 48,000 g for 20 min. After removal of the supernatant liquid, the proteinaceous membrane material present in the sediment was washed three times by suspension in buffer solution A and subsequent centrifugation at 48,000 g for 20 minutes each time. The membrane material was then suspended in 15 times the volume of buffer solution A and incubated at 37° C. for 30 minutes. The protein material was subsequently washed twice by centrifugation and suspension and stored at -70° C. until used.
For the binding assay, the protein material was thawed at 37° C. and washed twice by centrifugation at 48,000 g (20 minutes) followed by suspension in a buffer solution B composed of 50 mM TRIS-HCl, 0.1 M potassium thiocyanate and 2.5 mM calcium chloride, pH 7.1. Subsequently 0.25 mg of membrane material, 0.1 μCi of ^3 H-AMPA (60 Ci/mmol) and compound I were dissolved in 1 ml of buffer solution B and incubated on ice for 60 minutes. The incubated solution was filtered through a CF/B filter (from Whathman) which had previously been treated with a 0.5% strength aqueous solution of polyethyleneimine for at least 2 hours. The filtrate [sic] was then washed with 5 ml of cold buffer solution B in order to separate bound and free ^3 H-AMPA from one another. After the radioactivity of the bound ^3 H-AMPA in the membrane material had been measured by scintillation counting, the KI was determined by subjecting the displacement plots to regression analysis.

| SMILES | pKi [1] | pKi (AMPA receptor) |
| --- | --- | --- |
| Cc1cc2[nH]c(=O)n3nc(CCC(=O)NCc4ccccc4)nc3c2cc1C [Example 21, 3-(8,9-Dimethyl-1,2,4-triazolo[1,5-c]quinazolin-5-on-2)propionic acid benzylamide] | 6.10 | – |
| COC(=O)CCc1nc2c3cc(C)c(C)cc3[nH]c(=O)n2n1 [Example 4, Methyl 3-(8,9-dimethyl-1,2,4-triazolo[1,5-c]quinazolin-5-on-2)propionate] | 5.76 | – |
| O=C(O)CCc1nc2c3cc([N+](=O)[O-])c([N+](=O)[O-])cc3[nH]c(=O)n2n1 [Example 15] | 6.40 | 6.00 |
| O=C(O)CCc1nc2c3ccc(C(F)(F)F)cc3[nH]c(=O)n2n1 [Example 18] | 6.19 | 6.22 |
| Cc1cc2[nH]c(=O)n3nc(CCC(=O)O)nc3c2cc1C [Example 16] | 7.00 | – |
| O=C(O)CCc1nc2c3ccc([N+](=O)[O-])cc3[nH]c(=O)n2n1 [Example 14] | 6.77 | 6.22 |
| O=C(O)CCCc1nc2c3ccc([N+](=O)[O-])cc3[nH]c(=O)n2n1 [Example 13] | 6.30 | 5.47 |
| O=C(O)CCc1nc2c3cc4ccccc4cc3[nH]c(=O)n2n1 [Example 20] | 6.40 | 6.22 |
| O=C(O)CCc1nc2c3ccc4ccccc4c3[nH]c(=O)n2n1 [Example 19] | 6.52 | 6.15 |
